Broadly, the IC50 is the point on the concentration scale where inhibition reaches its midpoint. Read a low IC50 as higher potency.

The target of this assay is T1, human heart chymase (Homo sapiens, UniProt P23946).
T1 sequence (P23946 22-247): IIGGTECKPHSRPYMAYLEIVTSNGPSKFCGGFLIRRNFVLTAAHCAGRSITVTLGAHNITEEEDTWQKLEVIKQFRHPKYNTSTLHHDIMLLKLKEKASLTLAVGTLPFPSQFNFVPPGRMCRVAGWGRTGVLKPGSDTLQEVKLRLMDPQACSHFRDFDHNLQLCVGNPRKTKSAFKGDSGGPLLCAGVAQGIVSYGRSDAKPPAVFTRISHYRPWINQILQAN
In words: biochemical. To be noted: Chymase inhibitive activity (IC50), Ang I substrate, 37° C., 30 min, pH 7.5.

Experimental: That is, to 10 μl of a 20 mM trisphosphate buffer (pH 7.5) containing 2MKCl were added 10 μl of purified chymase and 5 μl of a dimethylsulfoxide (hereinafter referred to as DMSO) solution of the test sample. The mixture was preincubated at 37° C. for 10 minutes, then 25 μl of a 1 mM Ang I solution was added and the mixture preincubated at 37° C. for 30 minutes. Next, 50 μl of 30% acetic acid was added to stop the enzymatic reaction. At the same time, a blind test was performed by adding, instead of the test sample solution, 5 μl of DMSO and performing the same reaction.
The reacted solution was subjected to high performance liquid chromatography using Develosil ODS-5 (made by Nomura Kagaku, .phi.4.6 mm×150 mm) and developed at a flow rate of 2.0 ml/min in 0.05% TFA by a straight concentration gradient raising the acetonitrile from 0% to 60% over 10 minutes. This was monitored by the absorbance at 210 nm and the peaks identified by comparison with standard samples of Ang I and Ang II. The peak areas were measured by an integrating meter to quantitatively analyze the Ang I and Ang II and calculate the chymase activity.

Compound `O=C(Cn1c(=O)n(S(=O)(=O)c2ccc(Cl)cc2)c(=O)c2ccc(Cl)cc21)Nc1ccccn1` [Example 55, [7-chloro-3-(4-chlorobenzenesulfonyl)-2,4(1H,3H)-quinazolinedion-1-yl]-N-(2-pyridyl)acetamide] displayed an IC50 of 72 nM.
On to `CC[n+]1cccc(NC(=O)Cn2c(=O)n(S(=O)(=O)c3ccc(Cl)cc3)c(=O)c3ccc(Cl)cc32)c1` [Example 56, 3-{[7-chloro-3-(4-chlorobenzenesulfonyl)-2,4(1H,3H)-quinazolinedion-1-yl]acetylamino}-N-ethylpyridinium iodide], for which the IC50 was found to be 31 nM. This IC50 lies about 2.3-fold lower than the previous one.
`C[n+]1ccc(NC(=O)Cn2c(=O)n(S(=O)(=O)c3ccc(Cl)cc3)c(=O)c3ccc(Cl)cc32)cc1` [Example 58, 4-{[7-chloro-3-(4-chlorobenzenesulfonyl)-2,4(1H,3H)-quinazolinedion-1-yl]acetylamino}-N-methylpyridinium iodide] displayed an IC50 of 130 nM.
`O=c1c2ccc(Cl)cc2n(Cc2ccccc2)c(=O)n1S(=O)(=O)c1ccc(Cl)cc1` [Example 59, 1-benzyl-7-chloro-3-(4-chlorobenzenesulfonyl)-2,4(1H,3H )-quinazolinedione] registered an IC50 of 370 nM. This IC50 is about 2.8-fold higher than that of the compound before.
To `N#Cc1ccc(Cn2c(=O)n(S(=O)(=O)c3ccc(Cl)cc3)c(=O)c3ccc(Cl)cc32)cc1` [Example 60, 7-chloro-3-(4-chlorobenzenesulfonyl)-1-(4-cyanobenzyl)-2,4(1H,3H)-quinazolinedione] belongs 340 nM.
Compound `N#Cc1cccc(Cn2c(=O)n(S(=O)(=O)c3ccc(Cl)cc3)c(=O)c3ccc(Cl)cc32)c1` [Example 61, 7-chloro-3-(4-chlorobenzenesulfonyl)-1-(3-cyanobenzyl)-2,4(1H,3H)-quinazolinedione] yielded an IC50 of 160 nM. This IC50 is about 2.1-fold lower than that of the compound before.
`O=C(O)c1cccc(Cn2c(=O)n(S(=O)(=O)c3ccc(Cl)cc3)c(=O)c3ccc(Cl)cc32)c1` [Example 66, 1-(3-carboxybenzyl)-7-chloro-3-(4-chlorobenzenesulfonyl)-2,4(1H,3H)-quinazolinedione]: inhibition was half-maximal at 240 nM (IC50).
The compound `O=C(Nc1cccnc1)c1cccc(Cn2c(=O)n(S(=O)(=O)c3ccc(Cl)cc3)c(=O)c3ccc(Cl)cc32)c1` [Example 68, 7-chloro-3-(4-chlorobenzenesulfonyl)-1-(3-(3-pyridyl)aminocarbonyl-benzyl)-2,4(1H,3H)-quinazolinedione] had an IC50 of 110 nM.
Turning to `O=C(O)CNC(=O)c1cccc(Cn2c(=O)n(S(=O)(=O)c3ccc(Cl)cc3)c(=O)c3ccc(Cl)cc32)c1` [Example 70, 3-(7-chloro-3-(4-chlorobenzenesulfonyl)-2,4(1H,3H)-quinazolinedion-1-yl)methylbenzoylglycine], the IC50 worked out at 230 nM.
The compound `O=C(O)CCC(=O)Nc1ccc(Cn2c(=O)n(S(=O)(=O)c3ccc(Cl)cc3)c(=O)c3ccc(Cl)cc32)cc1` [Example 73] yielded an IC50 of 2300 nM. Compared with the last compound, the IC50 is about 10-fold higher.
Consider `Nc1ccccc1Cn1c(=O)n(S(=O)(=O)c2ccc(Cl)cc2)c(=O)c2ccc(Cl)cc21` [Example 75, 1-(2-aminobenzyl)-7-chloro-3-(4-chlorobenzenesulfonyl)-2,4(1H,3H)-quinazolinedione], for which the IC50 amounted to 180 nM.
The result for `O=C(Cn1c(=O)n(S(=O)(=O)c2ccc(Cl)cc2)c(=O)c2ccc(Cl)cc21)NCc1ccccc1` [Example 80, [7-chloro-3-(4-chlorobenzenesulfonyl)-2,4(1H,3H)-quinazolinedion-1-yl]-N-benzylacetamide] reads 140 nM; that for `O=C(Cn1c(=O)n(S(=O)(=O)c2ccc(Cl)cc2)c(=O)c2ccc(Cl)cc21)NCc1ccncc1` [Example 81, [7-chloro-3-(4-chlorobenzenesulfonyl)-2,4 (1H,3H)-quinazolinedion-1-yl]-N-(4-picolyl)acetamide], 220 nM; that for `O=C(Cn1c(=O)n(S(=O)(=O)c2ccc(Cl)cc2)c(=O)c2ccc(Cl)cc21)Nc1ccc2[nH]ccc2c1` [Example 82, [7-chloro-3-(4-chlorobenzenesulfonyl)-2,4(1h,3H)-quinazolinedion-1-yl]-N-(5-indolyl)acetamide], 51 nM.
In the case of `CC(C)(C)OC(=O)C[n+]1cccc(NC(=O)Cn2c(=O)n(S(=O)(=O)c3ccc(Cl)cc3)c(=O)c3ccc(Cl)cc32)c1` [Example 83, 3-{[7-chloro-3-(4-chlorobenzenesulfonyl)-2,4(1H,3H)-quinazolinedion-1-yl]acetylamino}-(N-t-butoxycarbonylmethylpyridinium) bromide], the midpoint of inhibition, the IC50, lay at 38 nM. The IC50 values of the last two compounds are within 1.5-fold of each other.
`O=C(O)C[n+]1cccc(NC(=O)Cn2c(=O)n(S(=O)(=O)c3ccc(Cl)cc3)c(=O)c3ccc(Cl)cc32)c1` [Example 84, 3-{[7-chloro-3-(4-chlorobenzenesulfonyl)-2,4(1H,3H)-quinazolinedion-1-yl]acetylamino}-N-carboxymethylpyridinium bromide] showed an IC50 of 43 nM. This IC50 and that of the compound before are within 1.5-fold of each other.
`O=C(Cn1c(=O)n(S(=O)(=O)c2ccc(Cl)cc2)c(=O)c2ccc(Cl)cc21)Nc1ccncn1` [Example 85, [7-chloro-3-(4-chlorobenzenesulfonyl)-2,4(1H,3H)-quinazolinedion-1-yl]-N-(4-pyrimidinyl)acetamide]: the midpoint of inhibition, the IC50, lay at 190 nM.
Take `CC[n+]1cccc(NC(=O)Cn2c(=O)n(S(=O)(=O)c3ccc(OC)cc3)c(=O)c3ccc(Cl)cc32)c1` [Example 90]: 130 nM corresponded to half-maximal inhibition (IC50).
In the case of `O=C(Cn1c(=O)n(S(=O)(=O)c2ccc(Cl)cc2)c(=O)c2ccc(Cl)cc21)Nc1cccc2ncccc12` [Example 91, [7-chloro-3-(4-chlorobenzenesulfonyl)-2,4(1H,3H)-quinazolinedion-1-yl]-N-(5-quinolyl)acetamide], the IC50 was 180 nM. This IC50 and that of the compound before are within 1.5-fold of each other.
As to `O=C(Cn1c(=O)n(S(=O)(=O)c2ccc(Cl)cc2)c(=O)c2ccc(Cl)cc21)Nc1ccc(N2CCNCC2)cc1` [Example 93, [7-chloro-3-(4-chlorobenzenesulfonyl)-2,4(1H,3H)-quinazolinedion-1-yl]-N-(4-piperazin-1-yl)acetamide], 390 nM corresponded to half-maximal inhibition (IC50).
To `Cc1ccc(S(=O)(=O)n2c(=O)c3ccc(Cl)cc3n(CC(=O)Nc3cccnc3)c2=O)cc1` [Example 94, [7-chloro-3-(4-methylbenzenesulfonyl)-2,4(1H,3H)-quinazolinedion-1-yl]-N-(3-pyridyl)acetamide] belongs 170 nM; to `CC[n+]1cccc(NC(=O)Cn2c(=O)n(S(=O)(=O)c3ccc(C)cc3)c(=O)c3ccc(Cl)cc32)c1` [Example 95, 3-{7-chloro-[3-(4-methylbenzene-sulfonyl)-3-(4-methoxybenzenesulfonyl)-2,4(1H,3H)-quinazolinedion-1-yl]acetylamino}-N-ethylpyridinium iodide], 210 nM; to `N[C@@H](Cc1ccc(NC(=O)Cn2c(=O)n(S(=O)(=O)c3ccc(Cl)cc3)c(=O)c3ccc(Cl)cc32)cc1)C(=O)O` [Example 99, [7-chloro-3-(4-chlorobenzenesulfonyl)-2,4(1H,3H)-quinazolinedion-1-yl]-N-(4-L-phenylalaninyl)acetamide], 210 nM.
For the compound `O=C(Cn1c(=O)n(S(=O)(=O)c2ccc(Cl)cc2)c(=O)c2ccc(Cl)cc21)Nc1ccc(C(=O)O)cc1C(=O)O` [Example 101, [7-chloro-3-(4-chlorobenzenesulfonyl)-2,4 (1H,3H)-quinazolinedion-1-yl]-N-(2,4-dicarboxylphenyl)acetamide], it took 280 nM to reach half-maximal inhibition (IC50).
The result for `Cn1ccc(S(=O)(=O)n2c(=O)c3ccc(Cl)cc3n(CC(=O)Nc3cccnc3)c2=O)c1` [Example 103, [7-chloro-3-(1-methylpyrrole-3-sulfonyl)-2,4(1H,3H)-quinazolinedion-1-yl]-N-(3-pyridyl)acetamide] reads 4600 nM; that for `O=C(Cn1c(=O)n(S(=O)(=O)c2ccc(Cl)cc2)c(=O)c2ccc(Cl)cc21)Nc1cccc(OP(=O)(O)O)c1` [Example 105], 25 nM.
`N=C(N)Nc1ccc(Cn2c(=O)n(S(=O)(=O)c3ccc(Cl)cc3)c(=O)c3ccc(Cl)cc32)cc1` [Example 107, 7-chloro-3-(4-chlorobenzenesulfonyl)-1-(4-guanidinobenzyl)-2,4(1H,3H)-quinazolinedione] came in with an IC50 of 230 nM.
As for `O=C(Cn1c(=O)n(S(=O)(=O)c2ccc(Cl)cc2)c(=O)c2ccc(Cl)cc21)c1ccccc1` [Example 108, 7-chloro-3-(4-chlorobenzenesulfonyl)-1-phenacyl-2,4(1H,3H)-quinazolinedione], half-maximal inhibition (IC50) required 1300 nM.
On to `O=c1c2ccc(Cl)cc2n(COCc2ccccc2)c(=O)n1S(=O)(=O)c1ccc(Cl)cc1` [Example 109, 1-(benzyloxymethyl)-7-chloro-3-(4-chlorobenzenesulfonyl)-2,4(1H,3H)-quinazolinedione], for which the half-inhibitory concentration (IC50) turned out to be 240 nM.
In the case of `O=C(O)CCCOc1ccc(NC(=O)Cn2c(=O)n(S(=O)(=O)c3ccc(Cl)cc3)c(=O)c3ccc(Cl)cc32)cc1` [Example 111, [7-chloro-3-(4-chlorobenzenesulfonyl)-2,4(1H,3H)-quinazolinedion-1-yl]-N-(4-(3-carboxylpropyloxy)phenyl)acetamide], 130 nM corresponded to half-maximal inhibition (IC50).
The result for `O=c1c2ccc(Cl)cc2n(Cc2cccnc2)c(=O)n1S(=O)(=O)c1ccc(Cl)cc1` [Example 114, 7-chloro-3-(4-chlorobenzenesulfonyl)-1-(3-pyridylmethyl)-2,4(1H,3H)-quinazolinedione] reads 46 nM; that for `O=C(Cn1c(=O)n(S(=O)(=O)c2ccc(-c3cc[nH]n3)cc2)c(=O)c2ccc(Cl)cc21)Nc1cccnc1` [Example 121, {7-chloro-3-[4-(3-pyrazolyl)benzenesulfonyl]-2,4(1H,3H)-quinazolinedion-1-yl}-N-(3-pyridlyl)acetamide], 340 nM; that for `O=C(Cn1c(=O)n(S(=O)(=O)c2cccnc2)c(=O)c2ccc(Cl)cc21)Nc1cccnc1` [Example 123, [7-chloro-3-(pyridine-3-sulfonyl)-2,4-(1H,3H)-quinazolinedion-1-yl]-N-(3-pyridyl)acetamide], 580 nM.

These data come from patent US5814631A, “Quinazoline derivatives and applications thereof” (Suntory Limited, priority 1995, dated 1998).
